Results as given in EP2736507B1, “BASIC ALPHA LIPOIC ACID SOLUTION AND ITS USES” (ITAPHARMA S.R.L., priority 2011, dated 2013).

Key:
[1] = humans, oral route, 600 mg, various formulations; cited from earlier work
[2] = tested on: HepG2 cells; assay: Cell vitality (ATP lite kit); type: cell-based, human; conditions: for Vitality %): [conc.]final 1.0 mM, HepG2, 72-hour (3x24 hr) treatment, control = 100
Experimental: In order to analyse the effects of the solution of the invention, alpha lipoic acid contained therein was digested in artificial gastric juice and subsequently administered in the culture medium at the final concentration of 0.5 or 1mM. The cell vitality effects recorded were compared with those achieved in a parallel control experiment wherein alpha lipoic acid dissolved in a solvent of election for cell studies, i.e. DMSO (but not digested in gastric juice) was used. […]

[3] = tested on: SK-N-SH cell cultures; assay: ROS induced from H2O2 in cell cultures; type: cell-based, human; conditions: for Ros (% compared to ctrl) 24h: 24h pre-treatment, then 2 hours 1.5mM mM H2O2; for Ros (% compared to ctrl) 48h: 48h pre-treatment, then H2O2
Experimental: Another important function ascribable to lipoic acid is that of contrasting the formation of reactive species of oxygen induced from H2O2. […] A further aim was to verify whether R-alpha lipoic acid retained this function also in an aqueous solution. For this reason, increasing doses of the same, coming from the above-used solution of the invention and subjected to digestion in artificial gastric juice, were added to the culture medium for different intervals of time (24 hr and 48 hr) before inducing an oxidative stress with H2O2. The same reaction was performed as a control, by using the R-alphaLA prepared in DMSO, but dissolved directly in medium to obtain the same working concentrations.
In Table 10, the values of ROS are reported as % with respect to those observed in the controls after 24 hours of maintenance in the culture and 2 hours of treatment with 1.5mM mM H2O2. In the first box of the Table, the results are shown as obtained after administration of R-alphaLA prepared in DMSO and then diluted directly in the medium to obtain the reference final concentrations; in the second box, on the other hand, R-alphaLA was first dissolved in the solution of the invention, subsequently digested in gastric juice and finally diluted in the medium. As summarised in Table 10, in each case, a dose-dependent response of alpha lipoic acid in preventing the formation of the ROS was observed over the first 24 hours.

[4] = tested on: HepG2 cells; assay: Glucose in the medium, insulin-resistant diabetes cellular model (Glucose assay kit); type: cell-based, human; conditions: 1 mM for 48 hr; HepG2 in medium enriched with glucose 30mM; reference control = 100%
Experimental: Lastly, the hypoglycaemia-inducing action of the lipoic acid formulated in aqueous solution of the invention was also evaluated, by utilising an insulin-resistant diabetes cellular model. HepG2 cells cultivated in a medium enriched with glucose and free of insulin mimicked certain conditions present in the hepatocytes of diabetic patients; in addition, certain functions of the culture medium, considered as a container of nutritional substances and an accumulation container for those substances excreted, could be compared to plasma circulation. […]
Table 11 reports some of the most significant results achieved by using the Sigma Aldrich Glucose assay kit to determine the glucose; more specifically, the values obtained from the culture medium following administration for 48 hr of lipoic acid (1mM) prepared in DMSO or formulated in aqueous solution at 30 % of propylene glycol, in accordance with the present invention. The most significant decrease in glucose was in fact observed with the R-enantiomer of alpha lipoic acid in the solution of the invention.

Row | SMILES | bioavailability [1] | Vitality %) [2] [%] | cell vitality values compared to the control ([2]; 1mM, 48-hr treatment, dissolved in DMSO, HepG2, previous tests) | Ros (% compared to ctrl) 24h ([3]; 100µM) [%] | Ros (% compared to ctrl) 48h ([3]; 100µM) [%] | Ros (% compared to ctrl) 24h ([3]; 200µM) [%] | Ros (% compared to ctrl) 48h ([3]; 200µM) [%] | Glucose in the medium (%) [4] [%]
1 | O=C(O)CCCCC1CCSS1 (stereo not drawn) [lipoic acid, 1,2-dithiolane-3-pentanoic acid] | less than 30% | – | – | – | – | – | – | –
2 | O=C(O)CCCCC1CCSS1 (racemic) [(RS) alphaLA (in DMSO), alpha lipoic acid] | – | 35.48 | – | – | – | – | – | –
3 | O=C(O)CCCC[C@@H]1CCSS1 [(R) alphaLA (in DMSO), alpha-R-lipoic acid] | – | 40.33 | halved | 77.87 | 99.26 | 49.18 | 103.98 | 89
